Patent US20120225061A1, “TETRASUBSTITUTED CYCLOHEXYL COMPOUNDS AS KINASE INHIBITORS” (priority 2011, published 2012)

Assays:
[1] = system: KMS11 (human myeloma cell line); assay: Cell proliferation assay (CellTiter-Glo) in KMS11 cells; type: cell-based; conditions: KMS-11, 72 h, Table 5, 3 days, read-out: KMS11-luc EC50
Outline: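 KMS11 cells at 2000 per well in IMDM/10% FBS were exposed to compound for 3 days. Viability was read by CellTiter-Glo luminescence.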

[2] = target: Pim1 kinase (Homo sapiens, UniProt P11309); assay: Pim1 AlphaScreen assay (high ATP)
Sequence of Pim1 kinase (P11309 whole entry): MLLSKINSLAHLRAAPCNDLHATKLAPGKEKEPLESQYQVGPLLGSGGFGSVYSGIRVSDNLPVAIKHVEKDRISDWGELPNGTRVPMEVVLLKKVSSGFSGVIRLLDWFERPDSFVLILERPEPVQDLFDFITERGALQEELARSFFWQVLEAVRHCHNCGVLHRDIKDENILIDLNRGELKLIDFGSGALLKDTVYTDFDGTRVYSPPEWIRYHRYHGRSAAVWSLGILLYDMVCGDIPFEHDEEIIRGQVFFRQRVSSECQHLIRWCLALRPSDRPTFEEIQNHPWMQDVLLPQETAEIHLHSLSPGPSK
Protocol: (§1) The activity of Pim 1, Pim 2, & Pim 3 is measured using a homogeneous bead based system quantifying the amount of phosphorylated peptide substrate resulting from kinase-catalyzed phosphoryl transfer to a peptide substrate. Compounds to be tested are dissolved in 100% DMSO and directly distributed to a white 384-well plate at 0.25 μl per well. […] This is followed by the addition of 5 μl/well of Pim 1, Pim 2 or Pim 3 kinase in assay buffer (concentrations described below). Final assay concentrations (described below) are in 2.5% DMSO. The reactions are performed for ˜2 hours, then stopped by the addition of 10 μl of 0.75 μg/ml anti-phospho Ser/Thr antibody (Cell Signaling), 10 μg/ml Protein A AlphaScreen beads (Perkin Elmer), and 10 μg/ml streptavidin coated AlphaScreen beads in stop/detection buffer (50 mM EDTA, 95 mM Tris, pH=7.5, 0.01% Tween-20). The stopped reactions are incubated overnight in the dark. The phosphorylated peptide is detected via an oxygen anion initiated chemiluminescence/fluorescence cascade using the Envision plate reader (Perkin Elmer).

[3] = target: Pim2 kinase (Homo sapiens, UniProt Q9P1W9); assay: Pim2 AlphaScreen assay (high ATP)
Sequence of Pim2 kinase (Q9P1W9 whole entry): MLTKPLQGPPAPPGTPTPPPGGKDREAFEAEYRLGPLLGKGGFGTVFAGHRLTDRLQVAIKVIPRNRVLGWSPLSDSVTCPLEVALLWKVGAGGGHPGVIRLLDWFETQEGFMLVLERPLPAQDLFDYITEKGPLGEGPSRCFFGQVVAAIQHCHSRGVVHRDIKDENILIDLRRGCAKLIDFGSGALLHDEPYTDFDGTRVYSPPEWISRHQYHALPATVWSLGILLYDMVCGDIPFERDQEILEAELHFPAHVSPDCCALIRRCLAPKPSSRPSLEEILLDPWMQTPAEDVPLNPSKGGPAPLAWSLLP

[4] = target: Pim3 kinase (Homo sapiens, UniProt Q86V86); assay: Pim3 AlphaScreen assay (high ATP)
Protocol: as §1

| Compound | EC50 [1] [nM] | IC50 [2] [nM] | IC50 [3] [nM] | IC50 [4] [nM] |
| --- | --- | --- | --- | --- |
| C[C@H]1C[C@@H](c2ccncc2NC(=O)c2ccc(F)c(-c3c(F)cc(OC4CCOCC4)cc3F)n2)C[C@@H](O)[C@]1(C)O [Example 90, 6-(2,6-difluoro-4-(tetrahydro-2H-pyran-4-yloxy)phenyl)-N-(4-((1R,3R,4R,5S)-3,4-dihydroxy-4,5-dimethylcyclohexyl)pyridin-3-yl)-5-fluoropicolinamide] | 557 | 0.47 | 215 | 64.4 |
| C[C@H]1C[C@@H](c2ccncc2NC(=O)c2ccc(F)c(-c3c(F)cc(COC4CCOCC4)cc3F)n2)C[C@@H](N)[C@]1(C)O [Example 92, N-(4-((1R,3R,4R,5S)-3-amino-4-hydroxy-4,5-dimethylcyclohexyl)pyridin-3-yl)-6-(2,6-difluoro-4-((tetrahydro-2H-pyran-4-yloxy)methyl)phenyl)-5-fluoropicolinamide] | 91 | 0.09 | 3.89 | 2.2 |
| Cc1noc(C)c1-c1cc(F)c(-c2nc(C(=O)Nc3cnccc3[C@H]3C[C@@H](N)[C@](C)(O)[C@@H](C)C3)ccc2F)c(F)c1 [Example 94, N-(4-((1R,3R,4R,5S)-3-amino-4-hydroxy-4,5-dimethylcyclohexyl)pyridin-3-yl)-6-(4-(3,5-dimethylisoxazol-4-yl)-2,6-difluorophenyl)-5-fluoropicolinamide] | 3230 | 0.3 | 114 | 47.8 |
| C[C@@H]1C[C@H](c2ccncc2NC(=O)c2ccc(F)c(-c3c(F)cc(OC4CCOCC4)cc3F)n2)C[C@H](O)[C@@]1(C)O [Example 96, 6-(2,6-difluoro-4-(tetrahydro-2H-pyran-4-yloxy)phenyl)-N-(4-((1S,3S,4S,5R)-3,4-dihydroxy-4,5-dimethylcyclohexyl)pyridin-3-yl)-5-fluoropicolinamide] | > 10000 | 18.7 | 8720 | 2620 |
| C[C@H]1C[C@@H](c2ccncc2NC(=O)c2nc(-c3c(F)cc(C(C)(C)O)cc3F)c(F)cc2N)C[C@@H](O)[C@]1(C)O [Example 97, 3-amino-6-(2,6-difluoro-4-(2-hydroxypropan-2-yl)phenyl)-N-(4-((1R,3R,4R,5S)-3,4-dihydroxy-4,5-dimethylcyclohexyl)pyridin-3-yl)-5-fluoropicolinamide] | 405 | 0.24 | 28.9 | 8.24 |
| COCCOc1cc(F)c(-c2nc(C(=O)Nc3cnccc3[C@H]3C[C@@H](O)[C@](C)(O)[C@@H](C)C3)c(N)cc2F)c(F)c1 [Example 98, 3-amino-6-(2,6-difluoro-4-(2-methoxyethoxy)phenyl)-N-(4-((1R,3R,4R,5S)-3,4-dihydroxy-4,5-dimethylcyclohexyl)pyridin-3-yl)-5-fluoropicolinamide] | 427 | 0.83 | 133 | 40.2 |
| CC(C)Oc1cc(F)c(-c2nc(C(=O)Nc3cnccc3[C@H]3C[C@@H](O)[C@](C)(O)[C@@H](C)C3)c(N)cc2F)c(F)c1 [Example 99, 3-amino-6-(2,6-difluoro-4-isopropoxyphenyl)-N-(4-((1R,3R,4R,5S)-3,4-dihydroxy-4,5-dimethylcyclohexyl)pyridin-3-yl)-5-fluoropicolinamide] | 1150 | 0.96 | 107 | 45.5 |
| CC(C)Oc1cc(F)c(-c2nc(C(=O)Nc3cnccc3[C@H]3C[C@@H](O)[C@](C)(O)[C@@H](C)C3)ccc2F)c(F)c1 [Example 106, 6-(2,6-difluoro-4-isopropoxyphenyl)-N-(4-((1R,3R,4R,5S)-3,4-dihydroxy-4,5-dimethylcyclohexyl)pyridin-3-yl)-5-fluoropicolinamide] | 1540 | 0.42 | 183 | 69.2 |
| COCCOc1cc(F)c(-c2nc(C(=O)Nc3cnccc3[C@H]3C[C@@H](O)[C@](C)(O)[C@@H](C)C3)ccc2F)c(F)c1 [Example 107, 6-(2,6-difluoro-4-(2-methoxyethoxy)phenyl)-N-(4-((1R,3R,4R,5S)-3,4-dihydroxy-4,5-dimethylcyclohexyl)pyridin-3-yl)-5-fluoropicolinamide] | 3180 | 0.89 | 253 | 74.2 |

Continued, values first:

| EC50 [1] [nM] | IC50 [2] [nM] | IC50 [3] [nM] | IC50 [4] [nM] | Compound |
| --- | --- | --- | --- | --- |
| 101 | 0.03 | 5.8 | 5.59 | C[C@H]1C[C@@H](c2ccncc2NC(=O)c2ccc(F)c(-c3c(F)cc(C4(C#N)CCOCC4)cc3F)n2)C[C@@H](N)[C@]1(C)O [Example 88, N-(4-((1R,3R,4R,5S)-3-amino-4-hydroxy-4,5-dimethylcyclohexyl)pyridin-3-yl)-6-(4-(4-cyanotetrahydro-2H-pyran-4-yl)-2,6-difluorophenyl)-5-fluoropicolinamide] |
| 22 | 0.02 | 1.47 | 0.35 | C[C@H]1C[C@@H](c2ccncc2NC(=O)c2ccc(F)c(-c3c(F)cc(O[C@H]4CCCOC4)cc3F)n2)C[C@@H](N)[C@]1(C)O [Example 89, N-(4-((1R,3R,4R,5S)-3-amino-4-hydroxy-4,5-dimethylcyclohexyl)pyridin-3-yl)-6-(2,6-difluoro-4-((S)-tetrahydro-2H-pyran-3-yloxy)phenyl)-5-fluoropicolinamide] |
| 102 | 0.07 | 2.4 | 1.62 | CC(C)OCc1cc(F)c(-c2nc(C(=O)Nc3cnccc3[C@H]3C[C@@H](N)[C@](C)(O)[C@@H](C)C3)ccc2F)c(F)c1 [Example 91, N-(4-((1R,3R,4R,5S)-3-amino-4-hydroxy-4,5-dimethylcyclohexyl)pyridin-3-yl)-6-(2,6-difluoro-4-(isopropoxymethyl)phenyl)-5-fluoropicolinamide] |
| 1400 | 0.09 | 8.44 | 1.23 | C[C@H]1C[C@@H](c2ccncc2NC(=O)c2ccc(F)c(-c3c(F)cc(OCC(=O)N(C)C)cc3F)n2)C[C@@H](N)[C@]1(C)O [Example 93, N-(4-((1R,3R,4R,5S)-3-amino-4-hydroxy-4,5-dimethylcyclohexyl)pyridin-3-yl)-6-(4-(2-(dimethylamino)-2-oxoethoxy)-2,6-difluorophenyl)-5-fluoropicolinamide] |
| 174 | 0.04 | 3.85 | 2.37 | C[C@H]1C[C@@H](c2ccncc2NC(=O)c2ccc(F)c(-c3c(F)cc(C4(O)CCC4)cc3F)n2)C[C@@H](N)[C@]1(C)O [Example 95, N-(4-((1R,3R,4R,5S)-3-amino-4-hydroxy-4,5-dimethylcyclohexyl)pyridin-3-yl)-6-(2,6-difluoro-4-(1-hydroxycyclobutyl)phenyl)-5-fluoropicolinamide] |
| 340 | 0.04 | 2.15 | 0.69 | COCCCOc1cc(F)c(-c2nc(C(=O)Nc3cnccc3[C@H]3C[C@@H](N)[C@](C)(O)[C@@H](C)C3)ccc2F)c(F)c1 [Example 100, N-(4-((1R,3R,4R,5S)-3-amino-4-hydroxy-4,5-dimethylcyclohexyl)pyridin-3-yl)-6-(2,6-difluoro-4-(3-methoxypropoxy)phenyl)-5-fluoropicolinamide] |
| 334 | 0.04 | 2.21 | 0.85 | C[C@H]1C[C@@H](c2ccncc2NC(=O)c2ccc(F)c(-c3c(F)cc(OCC4CCOCC4)cc3F)n2)C[C@@H](N)[C@]1(C)O [Example 101, N-(4-((1R,3R,4R,5S)-3-amino-4-hydroxy-4,5-dimethylcyclohexyl)pyridin-3-yl)-6-(2,6-difluoro-4-((tetrahydro-2H-pyran-4-yl)methoxy)phenyl)-5-fluoropicolinamide] |
| 175 | 0.02 | 1.5 | 0.61 | C[C@H]1C[C@@H](c2ccncc2NC(=O)c2ccc(F)c(-c3c(F)cc4c(c3F)OCC4)n2)C[C@@H](N)[C@]1(C)O [Example 102, N-(4-((1R,3R,4R,5S)-3-amino-4-hydroxy-4,5-dimethylcyclohexyl)pyridin-3-yl)-6-(5,7-difluoro-2,3-dihydrobenzofuran-6-yl)-5-fluoropicolinamide] |
| > 10000 | 1.43 | 14.1 | 58.9 | C[C@H]1C[C@@H](c2ccncc2NC(=O)c2ccc(F)c(-c3c(F)cc(C(C)(C)C(=O)O)cc3F)n2)C[C@@H](N)[C@]1(C)O [Example 103, 2-(4-(6-(4-((1R,3R,4R,5S)-3-amino-4-hydroxy-4,5-dimethylcyclohexyl)pyridin-3-ylcarbamoyl)-3-fluoropyridin-2-yl)-3,5-difluorophenyl)-2-methylpropanoic acid] |
| 823 | 0.07 | 7.56 | 4.37 | C[C@H]1C[C@@H](c2ccncc2NC(=O)c2ccc(F)c(-c3c(F)cc(C(F)F)cc3F)n2)C[C@@H](N)[C@]1(C)O [Example 104, N-(4-((1R,3R,4R,5S)-3-amino-4-hydroxy-4,5-dimethylcyclohexyl)pyridin-3-yl)-6-(4-(difluoromethyl)-2,6-difluorophenyl)-5-fluoropicolinamide] |
| 2980 | 0.55 | 120 | 78.3 | C[C@H]1C[C@@H](c2ccncc2NC(=O)c2ccc(F)c(-c3c(F)cc(C4(O)CCC4)cc3F)n2)C[C@@H](O)[C@]1(C)O [Example 105, 6-(2,6-difluoro-4-(1-hydroxycyclobutyl)phenyl)-N-(4-((1R,3R,4R,5S)-3,4-dihydroxy-4,5-dimethylcyclohexyl)pyridin-3-yl)-5-fluoropicolinamide] |
